Read-outs that look alike come from different tables or passages of the source.
Columns and labels:
[1] = cited from earlier work
[2] = cited from earlier work; remark: listed apart in the source
MDR1 = MDR1 (Homo sapiens, UniProt P08183); experiment: in vitro; conditions: dog, MDCK-MDR1, pH 7.4
Description: (§1) To the compounds available internally, in vitro efflux ratios for MDR1 and BCRP were determined by the following procedure (Supplemental Table 2). Test compound stock solutions in dimethyl sulfoxide (DMSO) were diluted in transport buffer (Hanks’ balanced salt solution (HBSS) with 10 mM HEPES, pH 7.4) to a concentration of 1 μM (DMSO < 1%) and applied to the apical or basolateral side of a cell monolayer derived from Madin-Darby canine kidney (MDCK)-MDR1 and MDCK-BCRP cells. Permeation of the test compounds from apical to basolateral (A to B) direction or B to A direction was measured in duplicate. The plate was incubated for 1 h in a CO2 incubator at 37±1°C with 5% CO2 at saturated humidity without shaking. In addition, the efflux ratio of each compound was also determined. Test and reference compounds were quantified by LC-MS/MS analysis based on the peak area ratio of analyte/internal standard.
(§2) The apparent permeability coefficient Papp (cm/s) was calculated by using Eq. 1: 1 Papp=dCr/dt×Vr/A×C0 where dCr/dt is the cumulative concentration of the compound in the receiver chamber as a function of time (μM/s); Vr is the volume of the solution in the receiver chamber (0.075 mL on the apical side, 0.25 mL on the basolateral side); A is the surface area for transport, i.e., 0.0804 cm^2 for the area of the monolayer; and C0 is the initial concentration (μM) in the donor chamber.
(§3) The efflux ratio was calculated using Eq. 2: 2 Efflux ratio=Papp,BtoA/Papp,AtoB

BCRP = target: T1, BCRP (Homo sapiens, UniProt Q9UNQ0); experiment: Transcellular transport across MDCK-BCRP cell monolayers (efflux ratio); conditions: dog, pH 7.4
T1 sequence (Q9UNQ0 1-655): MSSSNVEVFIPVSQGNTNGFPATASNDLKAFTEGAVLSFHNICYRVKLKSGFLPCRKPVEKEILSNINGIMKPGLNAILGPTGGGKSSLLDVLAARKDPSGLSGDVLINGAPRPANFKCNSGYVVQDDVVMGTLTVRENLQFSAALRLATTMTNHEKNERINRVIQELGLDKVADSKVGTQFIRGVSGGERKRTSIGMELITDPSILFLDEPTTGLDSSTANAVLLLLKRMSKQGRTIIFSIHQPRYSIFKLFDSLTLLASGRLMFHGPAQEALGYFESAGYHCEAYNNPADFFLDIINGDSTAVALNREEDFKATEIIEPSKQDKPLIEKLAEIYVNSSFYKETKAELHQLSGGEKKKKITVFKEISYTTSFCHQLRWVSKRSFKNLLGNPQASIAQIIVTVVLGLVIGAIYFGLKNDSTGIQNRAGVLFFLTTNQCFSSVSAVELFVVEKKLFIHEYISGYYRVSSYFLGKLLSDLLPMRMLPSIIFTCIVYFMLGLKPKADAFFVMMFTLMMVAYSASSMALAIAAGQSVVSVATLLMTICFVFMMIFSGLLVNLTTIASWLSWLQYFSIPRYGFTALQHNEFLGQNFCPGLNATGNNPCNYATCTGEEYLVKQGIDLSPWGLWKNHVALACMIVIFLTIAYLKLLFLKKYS
Description: as §1, §2, §3

[3] = Observed Kp,uu,brain and Kp,uu,CSF in monkeys; conditions: for Kp uu at 6 h: cynomolgus monkey, intravenous; for Kp,uu,CSF Monkey: lumbar CSF; for Kp,uu,CSF Monkey / Kp,uu,brain Monkey: *1 data internally obtained
Description: Monkey experiments were conducted internally or at the Drug Safety Research Laboratories in Shin Nippon Biomedical Laboratories via consignment to Axcelead Drug Discovery Partners. […] Detailed dosage regimen for each compound is summarized in Supplemental Table 3. […] Each cassette was assigned to a separate group of monkeys. The vehicle was saline or a mixture of dimethylacetamide and 1,3-butanediol (1:1, v/v). At the end of the 6-h infusion or 1 h after intravenous bolus administration, the monkeys were anesthetized, and whole blood, CSF, and whole brain were collected. Blood was collected using the anticoagulant, heparin sodium, and immediately centrifuged; the plasma was transferred to polypropylene tubes. Then, ketamine hydrochloride (50 mg/mL; 0.2 mL/kg; 10 mg/kg) was intramuscularly administered. CSF was collected after lumbar puncture using a spinal needle (22–25G) and a syringe pre-wetted with 10% CHAPS solution to prevent adsorption of compounds to all the equipment during pretreatment. CSF samples were immediately centrifuged, and the supernatant layers were transferred to polypropylene tubes. […] After collecting the cerebellum, hippocampus, and cerebral cortex from the whole brain, these were washed with cold saline, weighed, and homogenized immediately in 4 volumes of ice-cold 100 mmol/L sodium phosphate buffer. All samples were stored at –80°C until analysis by LC-MS/MS. Each sample (50 μL) was mixed with the working solution (the mixture of dimethyl sulfoxide and acetonitrile (2:8, v/v)), and protein was precipitated by the addition of 150 μL acetonitrile containing the internal standards (5 ng/mL alprenolol and diclofenac). After centrifugation at 5,250 rpm and 4°C for 5 min, the supernatant (150 μL) was transferred to a polypropylene 96-well plate (Corning; Corning, NY, USA) and completely evaporated under a gentle stream of N2. The residue was reconstituted in dilution solution (mobile phase A/B (7:3, v/v)), and the supernatant was analyzed by LC-MS/MS.
Each sample (50 μL) was mixed with the working solution (the mixture of dimethyl sulfoxide and acetonitrile (2:8, v/v)), and the protein was precipitated by adding 150 μL acetonitrile containing internal standards (5 ng/mL alprenolol and diclofenac). After centrifugation at 5250 rpm and 4°C for 5 min, the supernatant (150 μL) was transferred to a polypropylene 96-well plate (Corning) and completely evaporated under a gentle stream of N2. The residue was reconstituted in mobile phase A/B (7:3, v/v)), and the supernatant was analyzed by LC-MS/MS. API5000 and QTRAP5500 (AB SCIEX, Framingham, MA, USA) equipped with Ultra-Fast Liquid Chromatography (Shimadzu, Kyoto, Japan) were used for determination of drug concentrations. Reversed-phase chromatography was performed using Shim-pack XR ODS (2.2 μm, 2.0×30 mm). Mobile phase A consisted of 10 mM ammonium formate with 0.2% formic acid, and mobile phase B contained acetonitrile with 0.2% formic acid. […] The mass spectrometer was operated in the positive ionization mode with multiple reaction monitoring (MRM). The MRM parameters (Q1 ion, Q3 ion, DP, EP, CE, and CXP) for monitoring the compounds are shown in Supplemental Table 4. Data acquisition and processing were performed using Analyst 1.6.2 (AB SCIEX, Framingham, MA, USA).
To perform correlation analyses between the observed Kp,uu,brain and Kp,uu,CSF, and the model-based prediction of Kp,uu,brain and Kp,uu,CSF, data from literature information were integrated into the internally obtained data for these assessments (Supplemental Table 2) ([17],[22]–[24],[27]–[33]). When only the total concentrations in plasma, CSF, and brain were available, the total concentration ratio in plasma to CSF or brain (Kp,CSF or Kp,brain, respectively) was estimated, followed by calculation of Kp,uu,CSF or Kp,uu,brain based on Eqs.

Chain of MDR1 (P08183 whole entry): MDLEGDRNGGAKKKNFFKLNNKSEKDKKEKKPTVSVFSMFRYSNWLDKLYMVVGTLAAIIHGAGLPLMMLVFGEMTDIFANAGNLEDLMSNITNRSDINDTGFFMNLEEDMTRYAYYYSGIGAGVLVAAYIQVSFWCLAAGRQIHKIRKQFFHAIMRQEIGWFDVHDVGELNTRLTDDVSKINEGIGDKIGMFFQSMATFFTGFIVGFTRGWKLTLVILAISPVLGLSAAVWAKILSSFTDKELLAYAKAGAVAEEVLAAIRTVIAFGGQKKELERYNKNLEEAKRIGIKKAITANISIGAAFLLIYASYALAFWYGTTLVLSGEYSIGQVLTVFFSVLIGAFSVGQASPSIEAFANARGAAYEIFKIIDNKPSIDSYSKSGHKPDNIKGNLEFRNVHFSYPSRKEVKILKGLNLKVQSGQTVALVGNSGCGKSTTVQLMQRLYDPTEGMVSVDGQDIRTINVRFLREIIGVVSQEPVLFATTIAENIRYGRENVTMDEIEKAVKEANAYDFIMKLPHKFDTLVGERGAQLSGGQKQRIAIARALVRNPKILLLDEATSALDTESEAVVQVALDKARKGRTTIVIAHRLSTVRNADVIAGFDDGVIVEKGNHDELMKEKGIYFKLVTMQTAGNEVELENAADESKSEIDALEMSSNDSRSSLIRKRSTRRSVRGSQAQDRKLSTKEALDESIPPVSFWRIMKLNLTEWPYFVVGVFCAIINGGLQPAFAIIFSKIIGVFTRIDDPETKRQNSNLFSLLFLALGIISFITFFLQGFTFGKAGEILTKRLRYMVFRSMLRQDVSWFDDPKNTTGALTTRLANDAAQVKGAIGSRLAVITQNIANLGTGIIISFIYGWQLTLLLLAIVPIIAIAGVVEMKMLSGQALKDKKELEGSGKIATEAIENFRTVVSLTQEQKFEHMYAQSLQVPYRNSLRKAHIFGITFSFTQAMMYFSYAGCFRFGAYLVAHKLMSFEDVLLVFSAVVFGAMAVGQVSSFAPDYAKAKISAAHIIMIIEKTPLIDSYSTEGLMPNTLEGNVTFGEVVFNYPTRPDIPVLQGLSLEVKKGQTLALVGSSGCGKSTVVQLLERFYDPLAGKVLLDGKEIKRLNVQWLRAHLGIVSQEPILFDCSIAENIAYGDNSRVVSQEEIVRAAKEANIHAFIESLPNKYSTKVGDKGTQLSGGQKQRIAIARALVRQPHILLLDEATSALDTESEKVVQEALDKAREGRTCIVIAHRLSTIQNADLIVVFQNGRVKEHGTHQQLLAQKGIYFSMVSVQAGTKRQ

Row | Compound | Kp,uu,CSF Human ([1]; *4 ref Friden et al. (21)) | Kp,uu,CSF Rat ([2]; *4 ref Friden et al. (21)) | Kp,uu,brain Rat ([2]; *4 ref Friden et al. (21)) | also measured
1 | CO[C@@]1(NC(=O)C(C(=O)O)c2ccc(O)cc2)C(=O)N2C(C(=O)O)=C(CSc3nnnn3C)CO[C@@H]21 (stereo partly drawn) [Moxalactam] | 0.41 | 0.02 | 0.019 | –
2 | COc1ccc(C2CNC(=O)C2)cc1OC1CCCC1 (stereo not drawn) [Rolipram] | – | – | – | Kp,uu,brain Human ([1]; *3 ref Summerfield et al. (25)): 1.00
3 | CO/N=C(\C(=O)N[C@@H]1C(=O)N2C(C(=O)O)=C(COC(C)=O)CS[C@H]12)c1csc(N)n1 [Cefotaxime] | 0.17 | – | – | Kp,uu,brain Human ([1]; *4 ref Friden et al. (21)): 0.007
4 | CN[C@H]1CC[C@@H](c2ccc(Cl)c(Cl)c2)c2ccccc21 [Sertraline] | – | – | – | efflux ratio at 1 h, 1 μM (MDR1): 0.5; efflux ratio at 1 h, 1 μM (BCRP): 1.2
5 | NCC(CC(=O)O)c1ccc(Cl)cc1 (stereo not drawn) [Baclofen] | 0.17 | 0.027 | 0.02 | Kp uu at 6 h ([3]; CSF (lumbar) / plasma): 0.03; Kp uu at 6 h ([3]; brain / plasma): 0.037
6 | CNCCC(Oc1ccc(C(F)(F)F)cc1)c1ccccc1 (stereo not drawn) [Fluoxetine] | – | – | – | Kp,uu,brain Human ([1]; *3 ref Summerfield et al. (25)): 0.53; Kp,uu,brain Rat ([2]; *3 ref Summerfield et al. (25)): 2.143
7 | CCC(C(N)=O)(C(N)=O)c1ccccc1 [Ethyl-phenylmalonamide] | – | 1.4 | 1.250 | –
8 | CCn1cc(C(=O)O)c(=O)c2cc(F)c(N3CCNCC3)cc21 [Norfloxacin] | 0.11 | 0.018 | 0.028 | –
9 | C[C@H]1COc2c(N3CCN(C)CC3)c(F)cc3c(=O)c(C(=O)O)cn1c23 [Levofloxacin] | 0.18 | 0.19 | 0.120 | –
10 | CC(C)(C)NC(=O)[C@@H]1C[C@@H]2CCCC[C@@H]2CN1C[C@@H](O)[C@H](Cc1ccccc1)NC(=O)[C@H](CC(N)=O)NC(=O)c1ccc2ccccc2n1 [Saquinavir] | 0.096 | – | 0.055 | –
11 | O=C(O)c1ccccc1O [Salicylic acid] | 0.19 | 0.16 | 0.190 | –
12 | CN(C)CCC=C1c2ccccc2CCc2ccccc21 [Amitriptyline] | 0.18 | 0.17 | – | –
13 | CN1CC[C@]23c4c5ccc(O)c4O[C@H]2[C@@H](O[C@@H]2O[C@H](C(=O)O)[C@@H](O)[C@H](O)[C@H]2O)C=C[C@H]3[C@H]1C5 [M6G] | 0.1 | 0.017 | 0.008 | –
14 | CC(C)Nc1cccnc1N1CCN(C(=O)c2cc3cc(NS(C)(=O)=O)ccc3[nH]2)CC1 [Delavirdine] | 0.23 | 0.051 | 0.043 | –
15 | COc1ccc2c3c1O[C@H]1[C@@H](O)C=C[C@H]4[C@@H](C2)N(C)CC[C@@]341 [Codeine] | – | – | – | Kp,uu,CSF Human ([1]; in vivo): 0.79; Kp,uu,CSF Rat ([2]; in vivo): 0.54; Kp,uu,brain Rat ([2]; in vivo): 0.89
16 | NCC1(CC(=O)O)CCCCC1 [Gabapentin] | 0.16 | 0.067 | 0.140 | Kp,uu,brain Human ([1]; *4 ref Friden et al. (21)): 0.16
17 | O=C1NC(=O)C(c2ccccc2)(c2ccccc2)N1 [Phenytoin] | – | – | – | Kp,uu,brain Human ([1]; *3 ref Summerfield et al. (25)): 0.59; Kp,uu,brain Rat ([2]; *3 ref Summerfield et al. (25)): 0.316; Kp,uu,brain Rat ([2]; *7 ref Kodaira et al. (20)): 0.447; Kp,uu,CSF Rat ([2]; in vivo): 0.396
18 | COc1cccc(C2(O)CCCCC2CN(C)C)c1 (stereo not drawn) [Tramadol] | – | – | – | Kp,uu,CSF Human ([1]; in vivo): 1.44; Kp,uu,CSF Rat ([2]; in vivo): 0.71; Kp,uu,brain Rat ([2]; in vivo): 1.460
19 | CN1CC[C@]23c4c5ccc(O[C@@H]6O[C@H](C(=O)O)[C@@H](O)[C@H](O)[C@H]6O)c4O[C@H]2[C@@H](O)C=C[C@H]3[C@H]1C5 [M3G] | 0.081 | 0.049 | 0.011 | –
20 | CN1CC[C@]23c4c5ccc(O)c4O[C@H]2C(=O)CC[C@@]3(O)[C@H]1C5 [Oxymorphone] | – | 0.91 | 0.790 | –
21 | CSc1ccc2c(c1)N(CCC1CCCCN1C)c1ccccc1S2 (stereo not drawn) [Thioridazine] | 1.4 | 0.21 | 0.45 | Kp,uu,brain Rat ([2]; *3 ref Summerfield et al. (25)): 1.425
22 | CN(C)CCCC1(c2ccc(F)cc2)OCc2cc(C#N)ccc21 (stereo not drawn) [Citalopram] | – | – | – | Kp,uu,brain Human ([1]; *3 ref Summerfield et al. (25)): 0.347; Kp,uu,brain Rat ([2]; *3 ref Summerfield et al. (25)): 0.623; Kp,uu,CSF Rat ([2]; *7 ref Kodaira et al. (20)): 0.667; Kp,uu,brain Rat ([2]; *7 ref Kodaira et al. (20)): 0.494
23 | Cc1c(O)cccc1C(=O)N[C@@H](CSc1ccccc1)[C@H](O)CN1C[C@H]2CCCC[C@H]2C[C@H]1C(=O)NC(C)(C)C [Nelfinavir] | 0.045 | 0.067 | 0.019 | Kp,uu,CSF Monkey [3]: 0.640; Kp,uu,brain Monkey [3]: 0.008
24 | O=C1CN(/N=C/c2ccc([N+](=O)[O-])o2)C(=O)N1 [Nitrofurantoin] | – | 0.0099 | 0.011 | –
25 | CN1CCN2c3ncccc3Cc3ccccc3C2C1 (stereo not drawn) [Mirtazapine] | – | – | – | Kp,uu,brain Human ([1]; *3 ref Summerfield et al. (25)): 0.79; Kp,uu,brain Rat ([2]; *3 ref Summerfield et al. (25)): 1.611
26 | O=C(O)C[C@H](O)C[C@H](O)/C=C/c1c(C2CC2)nc2ccccc2c1-c1ccc(F)cc1 [Pitavastatin] | – | – | – | Kp,uu,CSF Monkey [3]: 0.129; Kp,uu,brain Monkey [3]: 0.242
27 | O=c1n(CCCN2CCN(c3cccc(Cl)c3)CC2)nc2ccccn12 [Trazodone] | – | – | – | Kp,uu,brain Human ([1]; *3 ref Summerfield et al. (25)): 0.93; Kp,uu,brain Rat ([2]; *3 ref Summerfield et al. (25)): 0.957
28 | C=CCOc1ccccc1OCC(O)CNC(C)C (stereo not drawn) [Oxprenolol] | – | 0.1 | 0.200 | –
